According to the RepoRT retention time repository (doi:10.1093/pcp/pcn183):
Structures can show the parent of a compound that is named as a salt.

assay: RP, Waters ACQUITY UPLC BEH C18, 38 °C, 0.24 mL/min; A: water + 0.1% formic acid, pH 3; B: acetonitrile + 0.1% formic acid, pH 3; gradient (min/%B) 0/0 0.25/0 0.4/9 0.8/17 1.9/100 2.1/100 2.11/0 3/0; details: stereoisomer not certain

LC retention time [min] | SMILES
0.64 | Nc1ncnc2c1ncn2C1OC(CO)C(OP(=O)(O)O)C1O (stereo unspecified) [Adenosine 3'-monophosphate From Yeast]
0.32 | Nc1nc2nc[nH]c2c(=O)[nH]1 [Guanine]
0.14 | N[C@H](CO)Cc1cnc[nH]1 [L-Histidinol dihydrochloride]
0.19 | O=C(O)C1(O)CC(O)C(O)C(O)C1 [D-(-)-Quinic acid]
0.18 | OC1COC(OC2COC(O)C(O)C2O)C(O)C1O (stereo unspecified) [Xylobiose]
0.23 | O=C(O)CC(O)C(=O)O [L-(-)-Malic acid]
1.27 | O=C(O)Cc1c[nH]c2ccc(O)cc12 [5-Hydroxyindole-3-acetate (5-HIAA)]
0.19 | O=C1OC2C(O)C(O)OC2C1O [D-Glucurono-6,3-lactone]
0.16 | NC(CCSCC(N)C(=O)O)C(=O)O (stereo not drawn) [L(+)-Cystathionine]
0.95 | NC(CCC(=O)NC(CS)C(=O)NCC(=O)O)C(=O)O [L-Glutathione (reduced form)]
0.17 | OCC1OC(OC2C(CO)OC(O)C(O)C2O)C(O)C(O)C1O [D-(+)- Maltose monohydrate]
1.32 | N=c1nc(N2CCCCC2)cc(N)n1O [Minoxidil]
0.19 | O=C(O)[C@@H]1CCCN1 [L-Proline]
0.19 | Nc1ccnc(=O)[nH]1 [Cytosine]
2 | CC(=O)OCC=C(C)CCC=C(C)CCC=C(C)C (mixture of isomers) [(cis,trans)-Farnesyl acetate]
1.38 | O=C(O)CCc1ccc(O)cc1 [3-(4-Hydroxyphenyl)-propionic acid]
1.09 | N[C@@H](Cc1ccccc1)C(=O)O [L-(-)-Phenylalanine]
1.46 | CC(=O)OCC1OC(Oc2c(-c3ccc(O)c(O)c3)oc3cc(O)cc(O)c3c2=O)C(O)C(O)C1O (stereo unspecified) [Quercetin-3-O-glucose-6''-acetate]
0.56 | CC(C)CCC(=O)O [4-methyl valeric acid]
0.17 | N[C@@H](CCO)C(=O)O [L-Homoserine]
0.27 | O=C(O)C1CCCCN1 (racemic) [DL-Pipecolinic acid]
0.17 | O=C(O)[C@@H]1C[C@@H](O)CN1 [trans-4-Hydroxy-L-proline]
0.15 | NCCCCN=C(N)N [Agmatine sulfate salt]
0.36 | Nc1ccn(C2OC(CO)C(OP(=O)(O)O)C2O)c(=O)n1 (stereo unspecified) [Cytidine-3'-monophosphate]
1.61 | COc1ccc(-c2coc3cc(OC4OC(CO)C(O)C(O)C4O)cc(O)c3c2=O)cc1 (stereo unspecified) [Sissotrin]

LC retention time [min] | SMILES
0.18 | CC[C@H](N)C(=O)O [L-2-Aminobutyric acid]
1.4 | O=c1c(OC2OC(CO)C(O)C(O)C2O)c(-c2ccc(O)c(O)c2)oc2cc(O)cc(O)c12 (stereo unspecified) [Hyperoside]
0.17 | NCCCC(=O)O [gamma-Amino-n-butyric acid]
1.49 | O=C(CCc1ccc(O)cc1)c1c(O)cc(O)cc1OC1OC(CO)C(O)C(O)C1O (stereo unspecified) [Phloridzin]
0.32 | NC1(C(=O)O)CCCC1 [1-Amino-1-cyclopentanecarboxylic acid]
0.66 | O=c1ccn(C2OC(CO)C(O)C2O)c(=O)[nH]1 (stereo unspecified) [Uridine]
0.19 | C[S+](CCC(N)C(=O)[O-])CC1OC(n2cnc3c(N)ncnc32)C(O)C1O [S-(5'-Adenosyl)-L-methionine chloride]
1.14 | OCC1OC(Oc2cc3c(OC4OC(CO)C(O)C(O)C4O)cc(O)cc3[o+]c2-c2ccc(O)cc2)C(O)C(O)C1O (stereo unspecified) [Pelargonin chloride]
0.22 | CC(=O)C(=O)O [Sodium Pyruvate]
1.18 | CC=C(C)C(=O)NCC(=O)O [N-Tigloylglycine]
1.33 | OCC1OC(Oc2cc(O)cc(C=Cc3ccc(O)c(O)c3)c2)C(O)C(O)C1O (stereo unspecified) [E-3,4,5'-trihydroxy-3'-glucopyranosylstilbene]
0.25 | CC(C)[C@H](N)C(=O)O [L-Valine]
1.52 | COc1ccc(-c2coc3cc(OC4OC(CO)C(O)C(O)C4O)ccc3c2=O)cc1 (stereo unspecified) [Ononin]
1.46 | CC1OC(Oc2c(-c3ccc(O)c(O)c3)oc3cc(O)cc(O)c3c2=O)C(O)C(O)C1O (stereo unspecified) [Quercitrin]
1.18 | O=C(O)C(O)Cc1ccc(O)cc1 (racemic) [DL-p-Hydroxyphenyllactic acid]
1.44 | COc1cc(/C=C/C(=O)O)ccc1O [trans-4-Hydroxy-3-methoxycinnamic acid]
1.5 | O=C(CCc1ccccc1)c1c(O)cc(O)cc1OC1OC(CO)C(O)C(O)C1O (stereo unspecified) [4-deoxyphloridzin]
1.32 | CC(C)=CCNc1ncnc2nc[nH]c12 [6-(gamma,gamma-Dimethylallylamino)purine]
0.55 | NC(CCC(=O)NC(CS)C(=O)O)C(=O)O (stereo unspecified) [gamma-Glu-Cys]
0.18 | CC(=O)NC1C(O)CC(O)(C(=O)O)OC1C(O)C(O)CO (stereo unspecified) [N-acetylneuraminic acid,Type IV-S,Synthetic]
1.74 | O=C(O)CCCCC1CCSS1 (racemic) [(+-)-alpha-Lipoic acid]
1.15 | O=C1O[C@H]([C@@H](O)CO)C(O)=C1O [L-Ascorbic acid]
0.16 | NCCC(=O)NC(Cc1cnc[nH]1)C(=O)O [L-Carnosine]
1.51 | O=C(O)C=Cc1ccccc1O [2-Hydroxycinnamic acid, predominantly trans]
1.49 | CC(C)c1cccc(O)c(=O)c1 [Hinokitiol]

LC retention time [min] | SMILES
1.24 | Cn1c(=O)c2c(ncn2C)n(C)c1=O [Caffeine,Anhydrous]
1.12 | OCC1OC(Oc2cc(O)cc3[o+]c(-c4ccc(O)c(O)c4)c(OC4OC(CO)C(O)C(O)C4OC4OCC(O)C(O)C4O)cc23)C(O)C(O)C1O (stereo unspecified)
1.45 | COc1cc(-c2oc3cc(O)cc(O)c3c(=O)c2OC2OC(CO)C(O)C(O)C2O)ccc1O (stereo unspecified) [isorhamnetin-3-O-glucoside]
0.16 | NCCOP(=O)(O)O [O-Phosphorylethanolamine]
0.2 | C[N+](C)(C)CCOP(=O)(O)OP(=O)([O-])OCC1OC(n2ccc(N)nc2=O)C(O)C1O (stereo unspecified)
0.31 | CSCC[C@H](N)C(=O)O [L-Methionine]
0.15 | Cn1cncc1C[C@H](N)C(=O)O [3-Methyl-L-histidine]
1.35 | CNC1(C)C2CCC(C2)C1(C)C (stereo unspecified) [Mecamylamine hydrochloride]
1.44 | CC1OC(OC2C(Oc3cc(O)c4c(=O)c(O)c(-c5ccc(O)cc5)oc4c3)OC(CO)C(O)C2O)C(O)C(O)C1O (stereo unspecified) [kaempferol-7-O-neohesperidoside]
0.18 | NCC(=O)CCC(=O)O [delta-Aminolevulinic acid hydrochloride]
1.09 | C=C(CC(=O)O)C(=O)O [Itaconic acid]
1.67 | O=C1CC(c2ccc(O)cc2)Oc2cc(O)cc(O)c21 (stereo unspecified) [naringenin]
0.15 | NCCCC[C@H](N)C(=O)O [L-(+)-Lysine]
1.08 | Cc1ncsc1CCO [4-Methyl-5-thiazoleethanol]
1.4 | CC1OC(OCC2OC(Oc3c(-c4ccccc4O)oc4cc(O)cc(O)c4c3=O)C(O)C(O)C2O)C(O)C(O)C1O (stereo unspecified) [Datiscin]
0.14 | CC(=O)NCCCNCCCCNCCCN [N1-Acetylspermine Trihydrochloride]
1.07 | Nc1ncnc2c1ncn2C1CC(O)C(CO)O1 (stereo unspecified) [2'-Deoxyadenosine monohydrate]
0.24 | Nc1ccn(C2OC(COP(=O)(O)O)C(O)C2O)c(=O)n1 (stereo unspecified) [Cytidine-5'-monophosphate monohydrate]
0.23 | NCCCCC(=O)O [5-Aminovaleric acid]
0.45 | Nc1ccn(C2CC(O)C(CO)O2)c(=O)n1 (stereo unspecified) [2'-Deoxycytidine]
1.23 | Oc1cc(O)c2cc(OC3OCC(O)C(O)C3O)c(-c3ccc(O)c(O)c3)[o+]c2c1 (stereo not drawn) [Cyanidin-3-O-alpha-arabinopyranoside]
0.16 | NCCS(=O)(=O)O [Taurine]
0.15 | NCC(N)C(=O)O (racemic) [DL-2,3-Diaminopropionic acid monohydrochloride]

SMILES | LC retention time [min]
CC(C)[N+](=O)[O-] [2-nitropropane] | 0.3
CCCCCCCCCCCC(=O)OCC(O)COP(=O)([O-])OCC[N+](C)(C)C (stereo unspecified) [Phosphocholine,1-Lauroyl-2-Hydroxy-sn-Glycero-3-] | 1.79
CS(=O)CCCCN=C=S (racemic) [D,L-sulforaphane] | 1.44
OCCN(CCO)CCO [2,2',2''-Nitrilotriethanol] | 0.17
CC(C)C(N)CC(=O)O [L-beta-homovaline-HCl] | 0.55
NCCc1c[nH]c2ccc(O)cc12 [Serotonin hydrochloride] | 1.08
CC1CCC2(NC1)OC1CC3C4CC=C5CC(O)CCC5(C)C4CCC3(C)C1C2C (stereo unspecified) [Solasodine] | 1.72
Nc1ccccc1C(=O)O [Anthranilic acid] | 1.39
CS(=O)C=CCCN=C=S (stereo unspecified) | 1.44
COc1cc(-c2[o+]c3cc(O)cc(O)c3cc2O)cc(OC)c1O [Malvidin Chloride] | 2.15
COc1cc2c(cc1O)C1Cc3ccc(OC)c(O)c3CN1CC2 (stereo unspecified) [Scoulerin] | 1.37
O=C(O)CCl [Chloroacetic acid] | 0.36
NCCc1c[nH]c2ccccc12 [3-(2-Aminoethyl)indole Hydrochloride] | 1.22
